Assay results taken from patent US20200079812A1, “UV-B ABSORBING COMPOUNDS ISOLATED FROM PLANTS” (MAX-PLANCK-GESELLSCHAFT ZUR FÖRDERUNG DER WISSENSCHAFTEN …, priority 2015, published 2020).
Several values for one entry are separate records, joined by “and”; a condition that tells them apart may be missing. Equal entries are not always repeated.

Assay: UV-B absorption profile (UV-VIS spectra, HPLC-PDA profiling)
Assay type: physicochemical
Protocol: Column chromatography was carried out over ODS (Nacalai Tesque, Cosmosil 75C18-OPN). HPLC analysis was carried out on an Atlantis® (ϕ4.6×150 mm, Waters) at a flow rate of 0.5 ml min^1. Preparative HPLC was performed on a LC 10A system (Shimadzu) using an Inertsil® ODS-EP 5 m ($6.0×150 mm) at 30° C. and monitoring was accomplished by PDA (200-600 nm). HPLC-PDA-ESI-MS (HPLC/photodiode array detection/electrospray ionization mass spectrometry) was performed on a Finnigan LCQ-DECA mass spectrometer (ThermoQuest, San Jose, Calif., USA) and an Agilent HPLC 1100 series (Agilent Technologies, Palo Alto, Calif., USA). HR-ESI-MS was performed on an Exactive™ mass spectrometer (ThermoQuest, San Jose, Calif., USA). Optical rotations were determined on a JASCO P-1020. UV spectra were recorded on a JASCO V-560. NMR data were recorded on JEOL JNM ECP-600. The deuterated solvent CD3OD was used for peak 4. Coupling constants are expressed in Hz.
UV-VIS spectra in the range between 260 nm and 450 nm were recorded and analyzed via HPLC-PDA profiling for kaempferol-3-Glc-2″-Rha-7Rha (FIG. 3A), saiginol A (kaempferol-3-Glc-2″-Rha-6″-sinapoyl-7Rha, FIG. 3B) and sinapoyl-glucose (FIG. 3C). HPLC-PDA (HPLC/photodiode array detection) was performed on Dionex Ultimate 3000 system (San Jose, Calif., USA). […]

Row | UV-B absorption (efficiency / UV-B absorbent properties) (UV-VIS spectra 260-450 nm, HPLC-PDA profiling, FIG. 3) | Compound | Amax (UV-VIS absorption maximum) (UV-VIS spectrum, UV (MeOH))
1 | – | COc1cc(/C=C/C(=O)OC[C@H]2O[C@@H](Oc3c(-c4ccc(O)cc4)oc4cc(O[C@@H]5O[C@@H](C)[C@H](O)[C@@H](O)[C@H]5O)cc(O)c4c3=O)[C@H](O[C@@H]3O[C@@H](C)[C@H](O)[C@@H](O)[C@H]3O)[C@@H](O)[C@@H]2O)cc(OC)c1O [Saiginol A, Kaempferol-3-O-[2-O-(α-L-rhamnopyranosyl)-6-O-(sinapoyl)-β-D-glucopyranoside]-7-O-α-L-rhamnopyranoside] | 201.5 nm and 223.0 nm and 266.5 nm and 331.5 nm
2 | much less efficient | CC1OC(Oc2cc(O)c3c(=O)c(OC4OC(CO)C(O)C(O)C4OC4OC(C)C(O)C(O)C4O)c(-c4ccc(O)cc4)oc3c2)C(O)C(O)C1O (centres unmarked) [kaempferol-3-Glc-2″-Rha-7Rha, kaempferol-3-O-Glc-2″-O-Rha-7-O-Rha, reference compound] | –
